Laboratory results taken from patent US8283375B2, “2, 6 xylidine derivatives for the treatment of pain” (Krisani Biosciences (P) Ltd., priority 2011, dated 2012).

Test system: spinal nerve ligation model for neuropathic pain in rats
Assay: Von Frey test for mechanical allodynia in Chung spinal nerve (L5-L6) ligation model
Format: in vivo, SD rats
Settings: 150 mg/kg; for analgesic efficacy on mechanical allodynia compared to Vehicle (conclusion in words): b105: 2 and 4.5 hours post-treatment on day 14 and 4.5 hours on day 21, b109: 2 hours post-treatment on days 14 and 21
Excerpt: Experimental animals were male SD rats with a starting weight of 230-250 grams. Total number of animals were n=90 for surgery and n=60 after selection. The animals were caged in groups of 3 in a temperature and humidity controlled area. They were maintained on a 12 hr light/dark cycle and had ad libitum access to food and water.
Neuropathic pain inducement was done by following principles of Chung induced model. The SD rats were anesthetized using ketamine/xylazine sodium. The rats were shaved and placed in prone position for surgery. The L5-L6 spinal nerves were surgically litigated. The rats were returned to their cages for recuperation and recovery under comfortable warm conditions using heat lamps.
After seven days of surgery a pre selection was performed. Animals that indicate signs of post operative pain were to be selected to proceed. Pain is detected by observing when one or more of the criteria are met as follows. Licking of the operated paw, accompanied by gentle biting or pulling on the nails with the mouth; placing the leg in the air; bearing weight on the side contra-lateral to the nerve injury; deformities of the hind paw and abnormal posture and walking; weakness of the left hind paw. […] However, the animal must be able to move its leg to ensure that the L4 spinal nerve is intact. If the animal cannot move its leg, it was excluded from the study.
Second level of selection of the rats was done on day 14 after the surgery. Von Frey test was performed on the preselected rats after day 7 on day 14. Using Von Frey methodology, animals with a pain threshold of ≦26 g for the operated leg will be included in the study. After this selection step, the animals were randomly placed into their experimental groups.
Blank, positive control and test compound: Blank was just the medium used for dissolving other compounds. The positive control was Gabapentin and the test compound was the final compound of formula 1 discussed in the instant disclosure. Three types of experimental groups were formed. Different types of chemicals such as Vehicle and Control were used to determine the efficacy of the chemicals as well comparison of the instant disclosed compound of formula 1, with a positive control was performed. The final compound of the instant disclosure was administered at 100 mg/kg and 150 mg/kg body weight as two different groups. The Gabapentin was administered at 150 mg/kg body weight.
On day 14 blank compound and final compound will be administered once daily starting on study day 14 through study day 21. Gabapentin, the positive control, will be administered 2 hours prior to pain testing on study days 14 and 21. […]
Pain Response Evaluation: Pain response was evaluated using Von Frey test for mechanical allodynia. […]

Row | Compound | duration of analgesic activity / activity compared with gabapentin (in words) | analgesic efficacy on mechanical allodynia compared to Vehicle (conclusion in words) | analgesic efficacy on mechanical allodynia compared to Vehicle (conclusion in words) (listed as compound of formula 1)
1 | NCC1(CC(=O)O)CCCCC1 [Gabapentin, reference compound] | active only at 2 hours post dosing |  | 
2 | CCN(CCOC(=O)CCCCC1CCSS1)CC(=O)Nc1c(C)cccc1C (stereo not shown) [KRB-5b] | prolonged analgesic activity compared to gabapentin | effective as a pain analgesic item | effective in treating the spinal nerve ligation model for neuropathic pain in rats
